Some test systems named below: 786-0 renal; CCRF-CEM leukemia; NCI-H226 lung; NCI-H23 lung; NCI/ADR-RES ovarian; PC-3 prostate; RXF 393 renal; SK-MEL-5 melanoma; T-47D breast; UACC-257 melanoma.
Holding throughout (test): DTP human tumour cell line panel, 48 h

Consider 8 compounds from PubChem BioAssay (NCI).

Molecules are shown by their SMILES. Values joined by “and” are separate entries in the source; they are usually repeats but may differ in a detail not shown here. Equal entries are not always repeated.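 Protocol summary: plate cells (96-well), add compound at 5 concentrations, incubate 48 h, interpolate endpoints linearly. Abbreviation: GI50, concentration required for 50% inhibition of growth. TGI: concentration producing complete growth inhibition.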

Usually GI50 stands for the concentration giving 50% growth inhibition. The TGI is the concentration giving total growth inhibition. A lower TGI goes with more potent growth arrest. Consider `N=C1C(c2nc(-c3ccc(Br)cc3)cs2)=C(O)CN1CC1CCCO1` (stereo not given), for which the GI50 with 786-0 renal, in the assay with CCRF-CEM leukemia, in the assay with NCI-H226 lung, in the assay with NCI-H23 lung, in the assay on NCI/ADR-RES ovarian and in the assay on PC-3 prostate was above 100 µM each time. Besides, the GI50 in the assay with RXF 393 renal, with SK-MEL-5 melanoma, in the assay on T-47D breast and in the assay with UACC-257 melanoma was above 100 µM in each case. Besides, the concentration for total growth inhibition (TGI) with 786-0 renal, with CCRF-CEM leukemia, with NCI-H226 lung, in the assay on NCI-H23 lung, with NCI/ADR-RES ovarian and with PC-3 prostate was above 100 µM in each case. The TGI in the assay on RXF 393 renal, in the assay on SK-MEL-5 melanoma, with T-47D breast and with UACC-257 melanoma was above 100 µM in each case.
For the compound `CC(C)(O)CCC(O)C(C)(O)C1CCC2(O)C3=CC(=O)C4(O)CC(O)C(O)CC4(C)C3CCC12C` (stereo not given) (tested in a mixture with another compound), the concentration for total growth inhibition (TGI) with 786-0 renal, with CCRF-CEM leukemia, in the assay on NCI-H226 lung, in the assay on NCI-H23 lung, with NCI/ADR-RES ovarian and in the assay with PC-3 prostate was above 100 µM throughout. The total growth inhibition concentration (TGI) in the assay on RXF 393 renal, with SK-MEL-5 melanoma, in the assay with T-47D breast and in the assay with UACC-257 melanoma was above 100 µM throughout.
In the case of `O=C(O)c1cc2c(c3ccsc13)-c1ccccc1CC2`, the GI50 with 786-0 renal is 49.7 µM; in the assay with CCRF-CEM leukemia, 37.6 µM; with NCI-H226 lung, 34.8 µM; in the assay on NCI-H23 lung, 30.1 µM; in the assay on NCI/ADR-RES ovarian it was 33.7 µM; in the assay on PC-3 prostate, 40.9 µM. Also, the GI50 with RXF 393 renal is 36.6 µM; in the assay on SK-MEL-5 melanoma, 31.3 µM; in the assay with T-47D breast it was 44.7 µM; with UACC-257 melanoma, 53.4 µM. In addition, the TGI was above 100 µM in the assay with 786-0 renal; above 100 µM in the assay on CCRF-CEM leukemia; above 100 µM with NCI-H226 lung; 79.5 µM in the assay with NCI-H23 lung; above 100 µM in the assay with NCI/ADR-RES ovarian; above 100 µM in the assay on PC-3 prostate. For the same compound, the concentration for total growth inhibition (TGI) in the assay on RXF 393 renal, in the assay with SK-MEL-5 melanoma, with T-47D breast and in the assay on UACC-257 melanoma was above 100 µM throughout.
As for `C[C@H]1CC2=CC(=O)CC[C@]2(C)[C@H]2CC[C@@]3(C)[C@@H](CC[C@]3(C)O)[C@H]12`, the GI50 in the assay on 786-0 renal is 42.5 µM; in the assay with CCRF-CEM leukemia, 12.1 µM; with NCI-H226 lung it was 30 µM; in the assay with NCI-H23 lung, 38.2 µM; with NCI/ADR-RES ovarian it was 28.7 µM; in the assay with PC-3 prostate, 8.65 µM. In addition, the GI50 in the assay with RXF 393 renal is 24.8 µM; in the assay with SK-MEL-5 melanoma it was 14.8 µM; in the assay with T-47D breast, 22.5 µM; in the assay on UACC-257 melanoma it was 35.4 µM. Moreover, the concentration for total growth inhibition (TGI) in the assay with 786-0 renal is above 100 µM; in the assay with CCRF-CEM leukemia, 53.7 µM; with NCI-H226 lung, above 100 µM; with NCI-H23 lung, above 100 µM; in the assay on NCI/ADR-RES ovarian, above 86.5 µM; in the assay with PC-3 prostate it was 99.7 µM. The TGI is 76.9 µM in the assay on RXF 393 renal, 33.3 µM in the assay on SK-MEL-5 melanoma, 70.3 µM with T-47D breast and above 94.1 µM in the assay on UACC-257 melanoma.
`Cc1cc(Cl)ccc1NC(=O)NC(C)(C)COC(=O)Nc1cccc(Cl)c1`: the GI50 with 786-0 renal was 24.2 µM; in the assay on CCRF-CEM leukemia, 3.88 µM; in the assay on NCI-H226 lung, 13.6 µM; in the assay with NCI-H23 lung, 3.66 µM; in the assay on NCI/ADR-RES ovarian it was 4.12 µM; in the assay on PC-3 prostate, 3.66 µM. For the same compound, the GI50 in the assay with RXF 393 renal was 17.5 µM; in the assay with SK-MEL-5 melanoma, 6.7 µM; in the assay with T-47D breast, 5.55 µM; in the assay with UACC-257 melanoma it was 8.23 µM. Further, the TGI with 786-0 renal is above 100 µM; in the assay with CCRF-CEM leukemia, 37.3 µM; in the assay on NCI-H226 lung it was above 100 µM; with NCI-H23 lung, 28.4 µM; with NCI/ADR-RES ovarian, above 100 µM; in the assay with PC-3 prostate it was 52.1 µM. Further, the concentration for total growth inhibition (TGI) in the assay on RXF 393 renal is 78.6 µM; in the assay on SK-MEL-5 melanoma, 25 µM; with T-47D breast it was above 100 µM; with UACC-257 melanoma, 42.5 µM.
`Cc1nn2c(/C=C3\C(=O)Nc4ccccc43)c(C)nc2s1`: the GI50 with 786-0 renal was 40.4 µM; in the assay with CCRF-CEM leukemia, 30.1 µM; with NCI-H226 lung it was above 100 µM; in the assay on NCI-H23 lung, 35.4 µM; with NCI/ADR-RES ovarian it was 6.3 µM; in the assay on PC-3 prostate it was 29.5 µM. Moreover, the GI50 with RXF 393 renal is 26.2 µM; with SK-MEL-5 melanoma, 16.5 µM; in the assay with T-47D breast, 32 µM; in the assay with UACC-257 melanoma, above 100 µM. The TGI is above 100 µM with 786-0 renal; above 100 µM with CCRF-CEM leukemia; above 100 µM in the assay on NCI-H226 lung; above 100 µM with NCI-H23 lung; 99 µM in the assay on NCI/ADR-RES ovarian; above 100 µM with PC-3 prostate. Also, the TGI with RXF 393 renal is 87.6 µM; with SK-MEL-5 melanoma, above 100 µM; in the assay with T-47D breast, above 100 µM; with UACC-257 melanoma it was above 100 µM.
For the compound `CS(=O)(=O)Nc1cc(-c2ccc3ncnc(Nc4cccc(Cl)c4F)c3c2)cnc1Cl`, the GI50 in the assay with 786-0 renal is 3.63 µM; in the assay on CCRF-CEM leukemia it was 2.59 µM; in the assay with NCI-H226 lung, 2.57 µM; in the assay on NCI-H23 lung it was 2.33 µM; in the assay on NCI/ADR-RES ovarian, 7.02 µM; in the assay with PC-3 prostate, 2.27 µM. Moreover, the GI50 with RXF 393 renal was 1.67 µM; in the assay on SK-MEL-5 melanoma it was 1.66 µM; in the assay with T-47D breast it was 0.382 µM; with UACC-257 melanoma, 2.62 µM. Besides, the TGI in the assay with 786-0 renal was 38.5 µM; with CCRF-CEM leukemia, above 100 µM; in the assay on NCI-H226 lung it was 18.2 µM; in the assay on NCI-H23 lung, 10.1 µM; in the assay on NCI/ADR-RES ovarian, 31.8 µM; in the assay on PC-3 prostate, 11.6 µM. Moreover, the TGI with RXF 393 renal came out at 4.93 µM; with SK-MEL-5 melanoma it was 3.29 µM; with T-47D breast it was 10.6 µM; in the assay on UACC-257 melanoma, 18 µM.
For the compound `O=[N+]([O-])c1ccc(NC(=S)N/N=C(\c2ccccc2)c2ccccn2)cc1`, the GI50 was 1.01 µM with 786-0 renal; 0.0073 µM in the assay with CCRF-CEM leukemia; 1.71 µM with NCI-H23 lung; 1.16 µM in the assay on PC-3 prostate; 0.0225 µM in the assay on UACC-257 melanoma. The total growth inhibition concentration (TGI) in the assay on 786-0 renal is 2.17 µM and 2.49 µM; in the assay with CCRF-CEM leukemia, 2.31 µM and 10.2 µM; with NCI-H226 lung, 2.98 µM and 3.03 µM; in the assay on NCI-H23 lung, 3.53 µM and 13.3 µM; with NCI/ADR-RES ovarian, 5.12 µM; with PC-3 prostate, 2.91 µM and 2.54 µM. Moreover, the total growth inhibition concentration (TGI) in the assay on RXF 393 renal is 2.83 µM and 3.06 µM; with SK-MEL-5 melanoma it was 2.53 µM and 2.74 µM; with T-47D breast it was 3.03 µM; in the assay with UACC-257 melanoma it was 2.06 µM and 3.26 µM.
